These results are taken from patent US9452985B2, “Tau imaging probe” (GE Healthcare Limited, priority 2010, dated 2016).

The conditions of data set [1]: data taken from Zhang et al. 2005 / Choi et al. 2009, cited from earlier work; for % ID/g 2 minutes post-administration / % ID/g 60 minutes post-administration: brain; for 2 minutes post-administration/60 minutes post-administration: quotient of brain % ID/g values.
Data set [2] concerns the target K18-ΔK280 aggregates (Homo sapiens (Human), UniProt P10636, DEL597-597). The data set is described as follows: Competitive binding test using [^18F] THK-5105 as radioactive competitor. To be noted: radioactive ligand [^18F] THK-5105 1.76 nM, K18-ΔK280 aggregates 200 nM, room temperature, one hour. The procedure: Regarding the binding of tau imaging probes to tau protein aggregates, a binding test was carried out and evaluated using a K18-ΔK280 construct which contained a 4-repeat structure involved in the formation of beta-sheet structures in the htau40 protein. For K18-ΔK280 (Martin von Bergen et al., THE JOURNAL OF BIOLOGICAL CHEMISTRY (2001), vol. 276, pp. 48165-48174; M. Goedert et al., NEURON (1989), vol. 3, pp. 519-526), an artificial gene fragment which was prepared based on its amino acid sequence was cloned into a pET-3a vector, the resulting plasmid was used to transform Escherichia coli BL21 (DE3) competent cells for protein expression, and the recombinant Escherichia coli cell was cultured to express K18-ΔK280. The K18-ΔK280 expressed was purified according to the method described in the literature (Stefan Barghorn et al., Methods in Molecular Biology, vol. 299, pp. 35-51). In the binding test, aggregates of the purified K18-ΔK280 were made and used.
K18-ΔK280 aggregates were made by preparing 20 μM PBS (pH 7.4) and incubating the K18-ΔK280 in the PBS at 37° C. for 4 days. The state where beta-sheet structures in K18-ΔK280 aggregates were formed was ascertained by thioflavin S fluorescence binding test. The aggregates solution was diluted to 400 nM in assay buffer (PBS, 0.1% BSA) and used in the binding test.
For tau imaging probes other than THK-5105, binding to K18-ΔK280 aggregates was evaluated with a competitive binding test using [^18F] THK-5105 as a radioactive competitor. In the binding test, [^18F] THK-5105 (at a final concentration of 1.76 nM) and a tested compound (at final concentrations of from 0.1 to 1000 nM) coexisted in the reaction system, to which K18-ΔK280 aggregates (at a final concentration of 200 nM) was then added and the mixtures were incubated at room temperature for one hour. The radioactivity of [^18F] THK-5105 binding to the aggregates was determined in a similar way as in the saturation binding test of THK-5105. The percentage of [^18F] THK-5105 bonding in the absence of each tested compound was set to be 100%, and percentages of [^18F] THK-5105 bonding at various concentrations of each of the tested compounds were determined.

Data set [3] can be described thus: Evaluation of brain delivery of [^18F] THK-5105, [^18F] THK-5117 and [^18F] THK-5125 in mice. The format is in vivo, male ICR mice. To be noted: for % ID/g 2 minutes post-administration: tail vein, brain; for 2 minutes post-administration/60 minutes post-administration: quotient of brain % ID/g values. The procedure: A physiological saline solution containing [^18F] THK-5105, [^18F] THK-5117, or [^18F] THK-5125 was administered into the tail vein of male ICR mice (6 to 7 weeks old), and brain delivery of these label compounds was assessed from the accumulation of radioactivity in brain and plasma tissues at two minutes post-injection.
As an index in the evaluation of radioactive accumulation, use was made of the percentage of radioactivity per unit weight of brain relative to the total radioactivity administered (% Injected Dose/g of tissue; % ID/g). For measurement of radioactivity, a gamma counter (1480 WIZARD, Perkin Elmer) was used. Experimental procedures were as follows. A label compound was administered into the tail vein of mice. Two minutes later, each mouse was subjected to cervical dislocation under ether anesthesia, and the whole brain, including the cerebellum and brain stem, was isolated immediately. The radioactivity and tissue weight of the sample were measured, and their data were used to calculate a % ID/g values for the labeled compound.

Assay in data set [4]: as above
To be noted: tail vein. In kind it is in vivo, male ICR mice.

Data set [5] has as its system neurofibrillary tangles (tau protein). The data set is described as follows: Autoradiography experiments using [^18F] THK-5105, [^18F] THK-5117 and [^18F] THK-5125. In kind it is binding, human. The procedure: Paraffin-embedded sections of the brain from an Alzheimer's disease patient were deparaffinized, and then immersed in PBS for 10 minutes. Approximately 400 μCi/ml of each of [^18F] THK-5105, [^18F] THK-5117, and [^18F] THK-5125 was added dropwise to deparaffinized sections and allowed to react for 10 minutes at room temperature. After that, the sections were immersed in distilled water for 2 minutes, shaken lightly in 50% EtOH for 2 minutes, immersed again in distilled water for 2 minutes, and dried in a paraffin stretching device. The section was left overnight in contact with an imaging plate. Next day, the image was read with a BAS 5000 (Fujifilm Corporation). In addition, adjacent sections were immunostained with anti-phosphorylated tau antibody (AT8).

Data set [6] concerns neurofibrillary tangles. The data set is described as follows: Staining test on brain section of Alzheimer's disease patients. The format is binding, human. To be noted: 100 μM solution in 50% ethanol, 10 minutes, fluorescence microscope. The source says: The procedure of staining test on the compounds of the present invention on the brain section of Alzheimer's disease patients is described below:
(1) We used the brain specimens of the temporal lobe or hippocampus from patients who were definitely diagnosed as having Alzheimer's disease pathology. The specimens were obtained from Choju Medical Institute, Fukushimura Hospital, our collaborating research institute, and the consent for use for research purposes was obtained from the patients' bereaved family (Fukushimura Hospital, Ethics Committee Approval No. 20).
(2) The paraffin-embedded brain tissue was sliced to 6 or 8 μm thickness, extended on a slide glass, and dried. The paraffinized brain section was deparaffinized by washing with xylene for 10 minutes×2, 100% ethanol for 5 minutes×2, 90% ethanol for 5 minutes, and running water for 10 minutes in this order.
(3) As a pretreatment for staining with the compounds of the present invention, the treatment to remove autofluorescence with lipofuscin was performed. First, the paraffinized brain section was immersed in 0.25% KMnO4 solution for 20 minutes. It was washed with PBS for 2 minutes twice, immersed in a 0.1% K2S2O5/oxalic acid solution for approximately 5 minutes, and further washed with PBS for 2 minutes 3 times.
(4) From 100 μM solution of the compounds of the present invention dissolved in 50% ethanol, approximately 150 μl was dropped on the section to react for 10 minutes. After being immersed in tap water 5 times, it was mounted with Flour Save Reagent (Calbiochem) and examined with a fluorescence microscope (Nikon, ECLIPSE 80i). The images were taken with a digital camera (Nikon, Dxin1200F or Photometrics, Cool SNAP ES).

Read-outs that look alike come from different tables or passages of the source.

Sequence of K18-ΔK280 aggregates (P10636 other isoform, or with tags, fused parts or gaps del 597-597): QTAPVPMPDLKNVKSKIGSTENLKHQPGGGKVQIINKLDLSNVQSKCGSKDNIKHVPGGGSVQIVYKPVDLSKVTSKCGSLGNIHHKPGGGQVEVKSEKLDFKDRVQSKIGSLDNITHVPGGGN

For `CNc1ccc(/C=C/c2ccc(OCCOCCOCC[18F])nc2)cc1` [[^18F]AV-45], in data set [1], the “% ID/g 2 minutes post-administration” value is 7.33 % ID/g, the “% ID/g 60 minutes post-administration” value is reported as 1.88 % ID/g and the “2 minutes post-administration/60 minutes post-administration” value was 3.90.

In the case of `CNc1ccc(/C=C/c2ccc(OCCOCCOCC[18F])cc2)cc1` [[^18F]BAY94-9172], in data set [1], the “% ID/g 2 minutes post-administration” value was 7.77 % ID/g, the “% ID/g 60 minutes post-administration” value was 1.61 % ID/g and the “2 minutes post-administration/60 minutes post-administration” value is given as 4.83.

`CCNc1ccc(-c2ccc3cc(OCC(O)CF)ccc3n2)cc1` (stereo not drawn) [THK-5125, 2-(4-ethylaminophenyl)-6-[(3-fluoro-2-hydroxy)propoxy]quinoline]: the Ki in data set [2] came out at 9.2 nM.

Regarding `CN(C)c1ccc(-c2ccc3cc(OC[C@H](O)C[18F])ccc3n2)cc1` [[^18F] THK-5105], in data set [3] (mice, compared with [^18F] BAY94-9172, [^18F] AV-45 and [^18F] FDDNP), the “delivery to and washout from the brain” value is “superior in being delivered to and washed out from the brain”. Besides, in data set [3] (mice), the “% ID/g 2 minutes post-administration” value was 9.20 % ID/g. For the same compound, the “2 minutes post-administration/60 minutes post-administration” value in data set [3] is reported as 9.20. Besides, in data set [4], the “% ID/g 60 minutes post-administration” value was 1.00 % ID/g. Moreover, the “affinity to neurofibrillary tangles (tau protein), autoradiography” value in data set [5] (Alzheimer's disease patient brain sections) is “high affinity to neurofibrillary tangles (tau protein)”. In addition, in data set [5] (approximately 400 μCi/ml, 10 minutes, Alzheimer's disease patient brain sections), the “accumulation in autoradiography of sections of the lateral temporal cortex and of the medial temporal cortex” value is “accumulated in the lateral temporal cortex and medial temporal cortex”. The “correspondence of autoradiography / unlabeled staining image with anti-phosphorylated tau antibody (AT8) immunostaining” value in data set [5] (hippocampus section and adjacent sections, higher magnification images) was “corresponded well with the image of immunostaining with the anti-phosphorylated tau antibody”.

In the case of `CNc1ccc(-c2ccc3cc(OCC(O)CF)ccc3n2)cn1` (stereo not drawn) [THK-5151, 2-(2-methylaminopyrid-5-yl)-6-[(3-fluoro-2-hydroxy)propoxy]quinoline], the Ki in data set [2] worked out at 40.1 nM.

Turning to `Nc1ccc(-c2ccc3cc(OCC(O)CF)ccc3n2)cc1` (stereo not drawn) [THK-5116, 2-(4-aminophenyl)-6-[(3-fluoro-2-hydroxy)propoxy]quinoline], in data set [6], the “binding to neurofibrillary tangles in the brain section of Alzheimer's disease patients (staining test)” value (from here on “binding to neurofibrillary tangles”) was “bind to neurofibrillary tangles specifically and selectively”. Moreover, in data set [2], the Ki is 36 nM.

Consider `CC(=C(C#N)C#N)c1ccc2cc(N(C)CCF)ccc2c1` [[^18F]FDDNP, reference compound], for which the “% ID/g 2 minutes post-administration” value in data set [3] (mice) amounted to 6.23 % ID/g. The “2 minutes post-administration/60 minutes post-administration” value in data set [3] was found to be 2.91. Moreover, the “% ID/g 60 minutes post-administration” value in data set [4] stood at 2.14 % ID/g.

In the case of `CCN(CC)c1ccc(-c2ccc3cc(OC(CO)CF)ccc3n2)cc1` (stereo not drawn) [THK-5035, 2-(4-diethylaminophenyl)-6-(1-fluoromethyl-2-hydroxy)quinoline], in data set [6], the “binding to neurofibrillary tangles” value was “bind to neurofibrillary tangles specifically and selectively”.

In the case of `CN(C)c1ccc(-c2ccc3cc(OCC(O)CF)ccc3n2)cn1` (stereo not drawn) [THK-5129, 6-[(3-fluoro-2-hydroxy)propoxy]-2-(2-dimethylaminopyrid-5-yl)quinoline], the Ki in data set [2] was found to be 21.4 nM.

On to `CC(=C(C#N)C#N)c1ccc2cc(N(C)CCF)ccc2c1` [FDDNP, reference compound], for which the Ki in data set [2] stood at 256 nM.

As to `CNc1ccc(-c2ccc3ccc(OC(CO)CF)cc3n2)cc1` (stereo not drawn) [THK-5077, 7-(1-fluoromethyl-2-hydroxyethoxy)-2-(4-methylaminophenyl)quinoline], the “binding to neurofibrillary tangles” value in data set [6] was “bind to neurofibrillary tangles specifically and selectively”.

Regarding `CCN(C)c1ccc(-c2ccc3ccc(OCC(O)CF)cc3n2)cc1` (stereo not drawn) [THK-5112, 2-(4-ethylmethylaminophenyl)-7-[(3-fluoro-2-hydroxy)propoxy]quinoline], in data set [6], the “binding to neurofibrillary tangles” value is “bind to neurofibrillary tangles specifically and selectively”.

Consider `CCNc1cccc2nc(-c3ccc(F)nc3)ccc12` [THK-5091, 5-ethylamino-2-(2-fluoropyrid-5-yl)quinoline], for which the “binding to neurofibrillary tangles” value in data set [6] was “bind to neurofibrillary tangles specifically and selectively”.

On to `CNc1ccc(-c2ccc3cc(OCC(O)CF)ccc3n2)cc1` (stereo not drawn) [THK-5117, 6-[(3-fluoro-2-hydroxy)propoxy]-2-(4-methylaminophenyl)quinoline], for which the “binding to neurofibrillary tangles” value in data set [6] was “bind to neurofibrillary tangles specifically and selectively”. In data set [2], the Ki was 10.5 nM.

With `Nc1ccc(-c2ccc3cc(OCCF)ccc3n2)cc1` [THK-523, reference compound], in data set [2], the Ki stood at 59.3 nM.

With `CCN(CC)c1ccc(-c2ccc3cc(OCC(O)CF)ccc3n2)cc1` (stereo not drawn) [THK-5122, 6-[(3-fluoro-2-hydroxy)propoxy]-2-(4-diethylaminophenyl)quinoline], the inhibitory constant (Ki) in data set [2] is 34.9 nM.

As to `CN1CCCc2cc(-c3ccc4cc(OCC(O)CF)ccc4n3)ccc21` (stereo not drawn) [THK-5153, 6-[(3-fluoro-2-hydroxy)propoxy]-2-(1-methyl-1,2,3,4-tetrahydroquinolin-6-yl)quinoline], the “binding to neurofibrillary tangles” value in data set [6] is “bind to neurofibrillary tangles specifically and selectively”.

`CN(C)c1ccc2nc(-c3ccc(N)c(F)c3)ccc2c1` [THK-5128, 2-(4-amino-3-fluorophenyl)-6-dimethylaminoquinoline]: in data set [6], the “binding to neurofibrillary tangles” value is “bind to neurofibrillary tangles specifically and selectively”.

As for `CCN(CC)c1ccc2nc(-c3ccc(F)nc3)ccc2c1` [THK-5088, 6-diethylamino-2-(2-fluoropyrid-5-yl)quinoline], in data set [6], the “binding to neurofibrillary tangles” value was “bind to neurofibrillary tangles specifically and selectively”.

The term Ki denotes a dissociation constant, usually derived from enzyme kinetics or from competition with a known ligand.
